Source: patent publication US20070128217A1 (priority 2003, published 2007)

How the values were obtained:
[1] = test system: antibodies in sera from SARS patients (sera 1a, 1b, 2, 6, 37, 62, London, SARS-yellow, SARS-green); format: binding, human; set-up: Binding of serum 6 to linear peptides of protein X1 of SARS-CoV Urbani / Binding of serum 37 to linear peptides of protein X1 of SARS-CoV Urbani / Binding of serum 6 to looped/cyclic peptide (PEPSCAN-ELISA) / Binding of serum 37 to looped/cyclic peptide (PEPSCAN-ELISA) / Binding of serum 37 to looped/cyclic peptides of protein X1 of SARS-CoV Urbani / Binding of serum 6 to linear peptides of protein X2 / Binding of serum 37 to linear peptides of protein X2 / Binding of serum 37 to looped/cyclic peptides of protein X2 of SARS-CoV Urbani / Binding of serum 6 to linear peptides of protein M of SARS-CoV Urbani / Binding of serum 37 to linear peptides of protein M of SARS-CoV Urbani / Binding of serum 6 to looped/cyclic peptides of protein M of SARS-CoV Urbani / Binding of serum 37 to looped/cyclic peptides of protein M of SARS-CoV Urbani / Binding of serum 6 to linear peptides of protein X3 of SARS-CoV Urbani / Binding of serum 37 to linear peptides of protein X3 of SARS-CoV Urbani / Binding of serum 37 to looped/cyclic peptides of protein X3 of SARS-CoV Urbani / Binding of serum 6 to linear peptides of protein X4 of SARS-CoV Urbani / Binding of serum 37 to linear peptides of protein X4 of SARS-CoV Urbani / Binding of serum 37 to looped/cyclic peptides of protein X4 of SARS-CoV Urbani / Binding of serum 6 to linear peptides of protein X5 of SARS-CoV Urbani / Binding of serum 37 to linear peptides of protein X5 of SARS-CoV Urbani / Binding of serum 37 to looped/cyclic peptides of protein X5 of SARS-CoV Urbani / Binding of serum 6 to linear peptides of protein N of SARS-CoV Urbani / Binding of serum 37 to linear peptides of protein N of SARS-CoV Urbani / Binding of serum 6 to linear peptide (PEPSCAN-ELISA) / Binding of serum 1a to looped/cyclic peptides of protein N of SARS-CoV Urbani / Binding of serum 1b to looped/cyclic peptides of protein N of SARS-CoV Urbani / Binding of serum 2 to looped/cyclic peptides of protein N of SARS-CoV Urbani / Binding of serum 6 to looped/cyclic peptides of protein N of SARS-CoV Urbani / Binding of serum 37 to looped/cyclic peptides of protein N of SARS-CoV Urbani / Binding of serum 62 to looped/cyclic peptides of protein N of SARS-CoV Urbani / Binding of serum London to looped/cyclic peptides of protein N of SARS-CoV Urbani / Binding of serum SARS-green to looped/cyclic peptides of protein N of SARS-CoV Urbani: unit not given here
[2] = test system: control sera (pooled serum of ten healthy LUMC hospital workers; commercial negative donor pooled serum from the Dutch bloodbank); format: binding, human; set-up: Binding of Control serum LUMC to linear peptides / Binding of Control serum Blood-bank to linear peptides / Binding of Control serum LUMC to looped peptides / Binding of Control Serum Blood-Bank to Looped peptides / Binding of Control serum LUMC to linear peptides of the protein M of SARS-CoV Urbani / Binding of Control serum Blood-bank to linear peptides of the protein M of SARS-CoV Urbani / Binding of Control serum LUMC to looped peptides of the protein M of SARS-CoV Urbani / Binding of Control Serum Blood-Bank to Looped peptides of the protein M of SARS-CoV Urbani: unit not given here
[3] = test system: rabbit serum obtained by immunizing a rabbit with the SARS-CoV strain Frankfurt 1; format: binding; set-up: Binding of a rabbit serum to linear peptides / Binding of a rabbit serum to looped peptides / Rabbit serum linear peptides / Rabbit serum looped peptides / Binding of a rabbit serum to linear peptides of protein N of SARS-CoV Urbani (Rabbit serum linear peptides) / Binding of a rabbit serum to looped/cyclic peptides of protein N of SARS-CoV Urbani (Rabbit serum looped peptides): unit not given here

IPYNSVTDTIVVTEG
Binding of serum 1a to linear peptides of protein X1 of SARS-CoV Urbani [1]: 0.7
Binding of serum 1a to looped/cyclic peptides of protein X1 of SARS-CoV Urbani [1]: 0.5
Binding of serum 1b to linear peptides of protein X1 of SARS-CoV Urbani [1]: 0.5
Binding of serum 1b to looped/cyclic peptides of protein X1 of SARS-CoV Urbani [1]: 0.4
Binding of serum 2 to linear peptides of protein X1 of SARS-CoV Urbani [1]: 0.5
Binding of serum 2 to looped/cyclic peptides of protein X1 of SARS-CoV Urbani [1]: 0.4
Binding of serum 6 to linear peptides of protein X1 of SARS-CoV Urbani [1]: 0.4
Binding of serum 6 to looped/cyclic peptides of protein X1 of SARS-CoV Urbani [1]: 0.3
Binding of serum 37 to linear peptides of protein X1 of SARS-CoV Urbani [1]: 0.6
Binding of serum 37 to looped/cyclic peptides of protein X1 of SARS-CoV Urbani [1]: 0.5
Binding of serum 62 to linear peptides of protein X1 of SARS-CoV Urbani [1]: 0.4
Binding of serum 62 to looped/cyclic peptides of protein X1 of SARS-CoV Urbani [1]: 0.5
Binding of serum London to linear peptides of protein X1 of SARS-CoV Urbani [1]: 0.2
Binding of serum London to looped/cyclic peptides of protein X1 of SARS-CoV Urbani [1]: 0.2
Binding of serum SARS-green to linear peptides of protein X1 of SARS-CoV Urbani [1]: 0.3
Binding of serum SARS-green to looped/cyclic peptides of protein X1 of SARS-CoV Urbani [1]: 0.3
Binding of serum SARS-yellow to linear peptides of protein X1 of SARS-CoV Urbani [1]: 0.4
Binding of serum SARS-yellow to looped/cyclic peptides of protein X1 of SARS-CoV Urbani [1]: 0.2
Binding of Control Serum Blood-Bank to Looped peptides [2]: 0.6
Binding of Control serum Blood-bank to linear peptides [2]: 0.4
Binding of Control serum LUMC to linear peptides [2]: 0.5
Binding of Control serum LUMC to looped peptides [2]: 0.4
Binding of a rabbit serum to linear peptides [3]: 0.1
Binding of a rabbit serum to looped peptides [3]: 0.3

IQQWIQFMMSRRRLL
Binding of serum 1a to linear peptides of protein X2 [1]: 0.6
Binding of serum 1a to looped/cyclic peptides of protein X2 of SARS-CoV Urbani [1]: 0.4
Binding of serum 1b to linear peptides of protein X2 [1]: 0.5
Binding of serum 1b to looped/cyclic peptides of protein X2 of SARS-CoV Urbani [1]: 0.4
Binding of serum 2 to linear peptides of protein X2 [1]: 0.4
Binding of serum 2 to looped/cyclic peptides of protein X2 of SARS-CoV Urbani [1]: 0.5
Binding of serum 6 to linear peptides of protein X2 [1]: 0.6
Binding of serum 6 to looped/cyclic peptides of protein X2 of SARS-CoV Urbani [1]: 0.4
Binding of serum 37 to linear peptides of protein X2 [1]: 0.6
Binding of serum 37 to looped/cyclic peptides of protein X2 of SARS-CoV Urbani [1]: 0.5
Binding of serum 62 to linear peptides of protein X2 [1]: 0.5
Binding of serum 62 to looped/cyclic peptides of protein X2 of SARS-CoV Urbani [1]: 0.7
Binding of serum London to linear peptides of protein X2 [1]: 0.4
Binding of serum London to looped/cyclic peptides of protein X2 of SARS-CoV Urbani [1]: 0.2
Binding of serum SARS-green to linear peptides of protein X2 [1]: 0.3
Binding of serum SARS-green to looped/cyclic peptides of protein X2 of SARS-CoV Urbani [1]: 0.4
Binding of serum SARS-yellow to linear peptides of protein X2 [1]: 0.8
Binding of serum SARS-yellow to looped/cyclic peptides of protein X2 of SARS-CoV Urbani [1]: 0.5
Binding of Control Serum Blood-Bank to Looped peptides [2]: 0.5
Binding of Control serum Blood-bank to linear peptides [2]: 0.7
Binding of Control serum LUMC to linear peptides [2]: 0.5
Binding of Control serum LUMC to looped peptides [2]: 0.6
Binding of a rabbit serum to linear peptides [3]: 0.4
Binding of a rabbit serum to looped peptides [3]: 1.0

IRQEEVQQELYSPLF
Binding of serum 1a to linear peptides of protein X4 of SARS-CoV Urbani [1]: 0.7
Binding of serum 1b to linear peptides of protein X4 of SARS-CoV Urbani [1]: 0.6
Binding of serum 2 to linear peptides of protein X4 of SARS-CoV Urbani [1]: 0.5
Binding of serum 6 to linear peptides of protein X4 of SARS-CoV Urbani [1]: 0.5
Binding of serum 37 to linear peptides of protein X4 of SARS-CoV Urbani [1]: 0.8
Binding of serum 62 to linear peptides of protein X4 of SARS-CoV Urbani [1]: 0.8
Binding of serum London to linear peptides of protein X4 of SARS-CoV Urbani [1]: 0.7
Binding of serum SARS-green to linear peptides of protein X4 of SARS-CoV Urbani [1]: 0.8
Binding of serum SARS-yellow to linear peptides of protein X4 of SARS-CoV Urbani [1]: 0.7
Recognition of the peptide by sera of SARS-CoV infected individuals, and form (linear, looped/cyclic) in which it is recognized [1]: recognized in looped/cyclic form
Binding of Control Serum Blood-Bank to Looped peptides [2]: 0.7
Binding of Control serum Blood-bank to linear peptides [2]: 0.7
Binding of Control serum LUMC to linear peptides [2]: 0.7
Binding of Control serum LUMC to looped peptides [2]: 0.9
Rabbit serum linear peptides [3]: 0.4
Rabbit serum looped peptides [3]: 0.4

ITTDTGIENATFFIF
Binding of serum 1a to linear peptides of protein X1 of SARS-CoV Urbani [1]: 0.8
Binding of serum 1a to looped/cyclic peptides of protein X1 of SARS-CoV Urbani [1]: 0.7
Binding of serum 1b to linear peptides of protein X1 of SARS-CoV Urbani [1]: 0.7
Binding of serum 1b to looped/cyclic peptides of protein X1 of SARS-CoV Urbani [1]: 0.6
Binding of serum 2 to linear peptides of protein X1 of SARS-CoV Urbani [1]: 0.6
Binding of serum 2 to looped/cyclic peptides of protein X1 of SARS-CoV Urbani [1]: 0.6
Binding of serum 6 to linear peptides of protein X1 of SARS-CoV Urbani [1]: 0.5
Binding of serum 6 to looped/cyclic peptides of protein X1 of SARS-CoV Urbani [1]: 0.5
Binding of serum 37 to linear peptides of protein X1 of SARS-CoV Urbani [1]: 0.6
Binding of serum 37 to looped/cyclic peptides of protein X1 of SARS-CoV Urbani [1]: 0.9
Binding of serum 62 to linear peptides of protein X1 of SARS-CoV Urbani [1]: 0.5
Binding of serum 62 to looped/cyclic peptides of protein X1 of SARS-CoV Urbani [1]: 0.8
Binding of serum London to linear peptides of protein X1 of SARS-CoV Urbani [1]: 0.3
Binding of serum London to looped/cyclic peptides of protein X1 of SARS-CoV Urbani [1]: 0.3
Binding of serum SARS-green to linear peptides of protein X1 of SARS-CoV Urbani [1]: 0.3
Binding of serum SARS-green to looped/cyclic peptides of protein X1 of SARS-CoV Urbani [1]: 0.6
Binding of serum SARS-yellow to linear peptides of protein X1 of SARS-CoV Urbani [1]: 0.5
Binding of serum SARS-yellow to looped/cyclic peptides of protein X1 of SARS-CoV Urbani [1]: 0.7
Binding of Control Serum Blood-Bank to Looped peptides [2]: 0.6
Binding of Control serum Blood-bank to linear peptides [2]: 0.4
Binding of Control serum LUMC to linear peptides [2]: 0.9
Binding of Control serum LUMC to looped peptides [2]: 0.9
Binding of a rabbit serum to linear peptides [3]: 0.1
Binding of a rabbit serum to looped peptides [3]: 0.6

ITVATSRTLSYYKLG
Binding of serum 1a to linear peptides of protein M of SARS-CoV Urbani [1]: 0.6
Binding of serum 1a to looped/cyclic peptides of protein M of SARS-CoV Urbani [1]: 1.0
Binding of serum 1b to linear peptides of protein M of SARS-CoV Urbani [1]: 0.4
Binding of serum 1b to looped/cyclic peptides of protein M of SARS-CoV Urbani [1]: 0.6
Binding of serum 2 to linear peptides of protein M of SARS-CoV Urbani [1]: 0.5
Binding of serum 2 to looped/cyclic peptides of protein M of SARS-CoV Urbani [1]: 0.8
Binding of serum 6 to linear peptides of protein M of SARS-CoV Urbani [1]: 0.5
Binding of serum 6 to looped/cyclic peptides of protein M of SARS-CoV Urbani [1]: 1.1
Binding of serum 37 to linear peptides of protein M of SARS-CoV Urbani [1]: 0.4
Binding of serum 37 to looped/cyclic peptides of protein M of SARS-CoV Urbani [1]: 0.3
Binding of serum 62 to linear peptides of protein M of SARS-CoV Urbani [1]: 0.4
Binding of serum 62 to looped/cyclic peptides of protein M of SARS-CoV Urbani [1]: 0.6
Binding of serum London to linear peptides of protein M of SARS-CoV Urbani [1]: 0.3
Binding of serum London to looped/cyclic peptides of protein M of SARS-CoV Urbani [1]: 0.4
Binding of serum SARS-green to linear peptides of protein M of SARS-CoV Urbani [1]: 0.5
Binding of serum SARS-green to looped/cyclic peptides of protein M of SARS-CoV Urbani [1]: 0.4
Binding of serum SARS-yellow to linear peptides of protein M of SARS-CoV Urbani [1]: 0.2
Binding of serum SARS-yellow to looped/cyclic peptides of protein M of SARS-CoV Urbani [1]: 0.4
Binding of Control Serum Blood-Bank to Looped peptides of the protein M of SARS-CoV Urbani [2]: 0.5
Binding of Control serum Blood-bank to linear peptides of the protein M of SARS-CoV Urbani [2]: 0.8
Binding of Control serum LUMC to linear peptides of the protein M of SARS-CoV Urbani [2]: 0.7
Binding of Control serum LUMC to looped peptides of the protein M of SARS-CoV Urbani [2]: 0.6
Rabbit serum linear peptides [3]: 0.2
Rabbit serum looped peptides [3]: 0.4
